Source: patent US8466311B2, “Neuroprotective compositions and methods” (Sanford-Burnham Medical Research Institute, priority 2006, dated 2013)

Key:
PC12h cells = test: Oxidative glutamate toxicity in PC12h cells (MTT assay); type: cell-based
Experimental: PC12h cells, PC12hW1B cells, and PC12hD5D cells (expressing Nrf2DN) were incubated with various concentrations of glutamate for 20 h. […] Various concentrations of CA were added to PC12, PC or PC12hD5D cells 1 h prior to exposure to 5 mM glutamate for 20 h.
PC12h and COST cell cultures.
Thus, we examined whether CA could protect PC12h cells from such insults. We prepared naïve PC12h cells, Nrf2WT-expressing PC12h cells (PC12hW1B), and Nrf2DN-expressing PC12h cells (PC12hD5D). In order to examine the effects of the Keap1/Nrf2 pathway on cell survival in the face of oxidative stress, we exposed the cells to a high concentration of glutamate. […] To visualize surviving and dead cells, we stained cultures with fluorescein diacetate (FDA) and propidium iodide (PI), respectively. Additionally, cell survival was quantified by the 3-(4,5-dimethylthiazol-2-yl)-2,5-diphenyl tetrazolium bromide (MTT) assay (FIG. 4A).
We next tested the hypothesis that CA-induced neuroprotection is mediated by the Keap1/NRf2 pathway.

GSH = test: Total GSH levels in cortical cultures; type: cell-based; conditions: NEM
Experimental: Cell cultures, transfection, and glutathione (GSH) measurement. […] Transfection was performed with Lipofectamine 2000 (Invitrogen). In the reporter gene assays, firefly luciferase activity in cell lysates was measured with a luminometer (Promega). Total GSH (reduced and oxidized) was determined as described (Lee et al., Biochem. Biophys. Res. Commun. 280:286-292, 2001).
One caveat to the mechanism of NEPP and other electrophilic compounds acting at the level of Keap1 to induce HO-1 transcription is that NEPP could potentially react indiscriminately with other thiol-containing compounds in cells. To approach this question, we assessed cellular glutathione (GSH) levels to determine whether NEPP11 would affect this abundant antioxidant thiol. Nepp11 or N-ethylmaleimide (NEM) was added at t=0 and levels of total GSH were measured at the indicated times. GSH content of control cortical cultures (set arbitrarily at 100%) was 46.8±4.5 nmol/mg protein. […] In fact, this scenario seems likely, because the Keap1/Nrf2 pathway regulates the expression of γ-GCL in addition to HO-1 (Itoh et al., Mol. Cell. Biol. 24:36-45, 2004). […]
Transfections were performed with Lipofectamine 2000 (Invitrogen), and firefly luciferase activity in cell lysates was measured with a luminometer in the reporter gene assays (Promega).

cerebrocortical neurons = test: NMDA-induced neuronal cell death (excitotoxicity) in cerebrocortical cultures; conditions: ZnPP 10 μM added simultaneously with NEPP11
Experimental: We stained the cultures with both anti-MAP-2 and anti-NeuN monoclonal antibodies to label neuronal dendrites and nuclei, respectively. Vehicle or NEPP11 (0.7 μM) was added to cerebrocortical cultures (E17 and DIV14-21) 60 min before treatment with NMDA (50 μM) for 15 min. The cultures were then incubated for 20 h and subsequently stained with anti-MAP-2 and anti-NeuN and with Hoechst dye. Apoptotic nuclei were identified by morphological changes seen with Hoechst staining. […] We also added zinc protoporphyrin (ZnPP, 10 μM), a relatively specific HO-1 antagonist, simultaneously with NEPP11. The number of apoptotic neurons was assessed by determining the apoptotic index [(number of condensed nuclei in MAP-2 or NeuN-positive cells)/(number of total MAP-2 or NeuN-positive cells)×100%], as reported by Bonfoco et al. (Proc. Natl. Acad. Sci. USA 92:7162-7166, 1995).
Cerebrocortical cultures were prepared from embryonic day-17 Sprague-Dawley rats and used at day 14-21 in vitro (DIV14-21), as described (Bonfoco et al., Proc. Natl. Acad. Sci. USA 92:7162-7166, 1995). To induce predominantly neuronal apoptosis (rather than necrosis), we exposed cortical cultures to 50 mM NMDA plus 5 mM glycine/1.8 mM CaCl2 in nominally Mg^2+-free Earle's balanced salt solution for 15 min (Bonfoco et al., Proc. Natl. Acad. Sci. USA 92:7162-7166, 1995). After exposure to NMDA, the cultures were returned to normal medium containing vehicle or NEPP11 and incubated for 20 hr before analyzing cell survival. To assess the ability of NEPP compounds to block NMDA-induced neuronal apoptosis, we identified apoptotic neurons by double immunofluorescence with anti-NeuN and anti-MAP-2 to specifically label neurons and with Hoechst staining for nuclear morphology to detect apoptosis. The percentage of neurons and non-neuronal cells in our cultures was 33.6±4.9% and 66.4±4.4% (n=4), respectively.
In addition, we used mature cortical cultures (E17, DIV21) to assess excitotoxicity because functional NMDA receptors are expressed on these neurons.

[1] = biological target: T1, bovine serum albumin (BSA) (Bos taurus, UniProt P02769); test: Adduct formation with free cysteine of BSA (streptavidin blot); type: binding; conditions: PBS, room temperature, 5 h, streptavidin probe
T1 construct: purchased WAKO Chemicals Inc. (Tokyo, Japan) or Sigma (St. Louis, Mo.)
T1 sequence (P02769 25-607): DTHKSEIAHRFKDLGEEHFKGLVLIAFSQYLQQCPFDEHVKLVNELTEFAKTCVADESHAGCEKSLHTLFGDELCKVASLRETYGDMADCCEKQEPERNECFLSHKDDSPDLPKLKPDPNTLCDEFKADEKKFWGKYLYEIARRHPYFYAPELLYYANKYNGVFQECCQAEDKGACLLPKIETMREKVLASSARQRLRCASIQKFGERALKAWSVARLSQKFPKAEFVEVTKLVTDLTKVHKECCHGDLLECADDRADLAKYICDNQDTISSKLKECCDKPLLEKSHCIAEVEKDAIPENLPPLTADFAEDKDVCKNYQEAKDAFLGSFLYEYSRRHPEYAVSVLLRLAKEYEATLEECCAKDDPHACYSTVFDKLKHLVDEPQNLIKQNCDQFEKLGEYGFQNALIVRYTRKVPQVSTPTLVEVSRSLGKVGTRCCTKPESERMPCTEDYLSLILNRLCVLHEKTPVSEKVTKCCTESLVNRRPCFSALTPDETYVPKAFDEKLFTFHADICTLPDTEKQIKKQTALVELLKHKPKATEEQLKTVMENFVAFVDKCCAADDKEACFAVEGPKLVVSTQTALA
Experimental: We tested whether the free cysteine of bovine serum albumin (BSA) could form an adduct with NEPP compounds. If carbon #11 on the NEPP compounds binds to this free cysteine of BSA, then pretreatment with N-ethylmaleimide (NEM), in irreversible thiol alkylating agent, would abolish this binding. […] With streptavidin as a probe, we could then detect proteins bound to NEPP6-biotin. In order to study thiols as targets of NEPP binding, BSA (1 μg per lane) was incubated with various concentrations (0-1000 μM) of N-ethylmaleimide (NEM) for 30 minutes at room temperature. Vehicle or NEPP6-biotin (10 μM) in phosphate-buffered saline (PBS) was added and the mixture was incubated at room temperature for 5 h, subjected to sodium dodecyl sulfate polyacrylamide gel electrophoresis (SDS-PAGE), and probed with peroxidase-conjugated streptavidin. The gel was also stained with Coomassie brilliant blue.

[2] = test system: mixed neuronal/glial cortical cultures; test: Site of accumulation of biotin-labeled compound in mixed neuronal/glial cortical cultures; type: cell-based, rat; conditions: E17 DIV21
Experimental: Activation of the Keap1/Nrf2 pathway in Primary Cortical Cultures. To begin to test the effects of NEPP compounds on primary cerebrocortical neurons, we treated mixed neuronal/glial cortical cultures with NEPP6-biotin and then fixed and stained with rhodamine conjugated to streptavidin to determine the site of NEPP accumulation. Cortical cultures treated with NEPP6-biotin (10 μM) were stained with anti-MAP-2 monoclonal and rhodamine-conjugated streptavidin antibodies and with Hoechst 33,258 dye.
Immunocytochemistry. Cultures were fixed with 3% paraformaldehyde at room temperature for 20 min. After three washes in PBS, the cells were permeabilized with 0.3% Triton X-100 for 5 min. After three additional washes in PBS, the cells were incubated at 4° C. overnight with primary antibodies. They were then washed three times in PBS containing 0.2% Tween 20 (PBS-T), and next incubated with secondary antibodies for 1 h at room temperature. Thereafter, the cells were again washed, and their nuclei stained with Hoechst 33,258 (5 μg/ml) or with DAPI (1 μg/ml) for 5 min. Stained preparations were mounted and examined by epifluorescence microscopy. The following primary antibodies were used: anti-Nrf2 antibody, anti-MAP2 and anti-NeuN antibodies to identify neurons (dendrites and nuclei, respectively), and anti-S100β antibody to identify astrocytes. […]

ARE = test: ARE(GSTYa)-luciferase reporter in PC12h cells; type: cell-based
Experimental: (1) pGL3-GSTYa ARE core-luciferase vector. […] The dsDNA thus obtained was inserted into the Mlu l and Bglll sites of the pGL3-promoter vector (Promega Co., Madison, Wis.).
Transient transfection and measurement of luciferase activity. PC12h cells or cerebrocortical cultures (E17, DIV21) were incubated for 5 h in EBSS containing 1 μg of a plasmid DNA plus Lipofectamine 2000 (Invitrogen, Carlsbad, Calif.). Transfection efficiency was normalized to β-galactosidase activity expressed by co-transfection with pSV-β-gal (Promega). For reporter gene assays, cells were transfected with 1 μg of the reporter construct [ARE(GSTYa)-luciferase] and 0.2 μg pSV-β-gal for 1 hour. […] Firefly luciferase activity and β-galactosidase activity in cell lysates were measured using a Luciferase System and β-Galactosidase Enzyme Assay System, respectively (Promega, Madison, Wis.).
Next, we examined the involvement of the Keap1/Nrf2 pathway more precisely by studying activation of the ARE. This transcription element responds to the Keap1/Nrf2 pathway; we monitored activation of the ARE by performing luciferase reporter gene assays using PC12h cells transfected with ARE(GSTYa)-luciferase (Alam et al., J. Biol. Chem. 274:26071-26077, 1999) in the presence or absence of an Nrf2 dominant-negative (DN) or Keap1 expression vector.

Keap1 [3] = test: Binding of CAB/CA to Keap1 and Keap1 deletion mutants (streptavidin precipitation); conditions: COS7 cells, 10 μM CAB
Experimental: (§1) (3) Expression vectors for HA-tagged Keap1 and Keap1 deletion mutants. These constructs were obtained from Dr. Akira Kobayashi of Tohoku University (Hosoya et al., J. Biol. Chem. 29:27244-27250, 2006; Kobayashi et al., Mol. Cell. Biol. 26:221-229, 2006).
(§2) Immunoprecipitation with agarose-immobilized streptavidin or antibody. PC12h cells (CAB- or vehicle-treated) were lysed in RIPA buffer supplemented with protease inhibitor cocktail. The lysates were centrifuged at 15,000 rpm for 10 min at 4° C., after which the supernatants were incubated with agarose-immobilized streptavidin at 4° C. for 1 h. Alternatively, for immunoprecipitation with anti-Keap1, the cell lysates were incubated with the antibody at 4° C. overnight, after which protein A immobilized on Sepharose CL-4B was added and incubation continued at 4° C. for 1 h. Then, the complexes were washed three times with rinse buffer (150 mM NaCl, 50 mM Tris-HCl [pH 7.5], 0.1% NP-40, 1 mM EDTA, and 0.02% NaN3). SDS sample buffer was added, the mixture was boiled for 5 min, and the supernatants were subjected to SDS-PAGE. Immunoblotting was then performed as described above.
(§3) CA activates the Keap1/Nrf2/ARE pathway. […] The initial reaction in this activation cascade is the binding of an electrophilic compound to specific cysteines on Keap1 protein (Hong et al., Chem. Res. Toxicol. 18: 1917-1926, 2005; Eggler et al., Proc. Nat. Acad. Sci. USA 102:10070-10075, 2005; Zhang et al., Mol. Cell. Biol. 10941-10953, 2004). Such binding initiates a cellular transcription pathway leading to induction of phase 2 enzymes (Talalay, Biofactors 12:5-11, 2000; Padmanabham et al., Mol. Cell 21:689-700, 2006; Itoh et al., Free Radic. Biol. Med. 36:1208-1213, 2004). Therefore, we examined the domains of Keap1 (designated BTB, IVR, and DGR) to determine those essential for binding to CA. Accordingly, for co-immunoprecipitation experiments, we transfected COS7 cells with DNA expressing either HA-tagged wild type Keap1 protein (HA-WT Keap1) or various deletion mutants of tagged Keap1 protein (HA-ΔBTB Keap1, HA-ΔIVR Keap1, and HA-ΔDGR Keap1). The transfected COS7 cells were then treated with vehicle or 10 μM CAB and lysed. We quantified the expression level of Keap1 protein in total cell lysates with anti-HA antibody. Each Keap1 mutant protein was expressed at a similar level of the predicted molecular weight (57 kDa for HA-ΔBTB Keap1, 53 kDa for HA-ΔIVR Keap1, and 37 kDa for HA-ΔDGR Keap1). Next, in order to detect Keap1/CAB complexes, we immunoprecipitated cell lysates with streptavidin and probed with anti-HA antibody. […] The requirement of the BTB domain for CA binding is in accord with prior results (Hong et al., Chem. Res. Toxicol. 18:1917-1926, 2005; Eggler et al., Proc. Nat. Acad. Sci. USA 102:10070-10075, 2005; Zhang et al., Mol. Cell. Biol. 24:10941-10953, 2004).
(§4) After binding of the electrophilic quinone-form of CA to Keap1 protein, activation of the Keap1/Nrf2 pathway requires nuclear translocation of Nrf2 (Talalay, Biofactors 12:5-11, 2000; Padmanabham et al., Mol. Cell 21:689-700, 2006; Itoh et al., Free Radic. Biol. Med. 36:1208-1213, 2004). Thus, we next examined the intracellular distribution of Nrf2 protein in COS7 cells by immunofluorescence.

Keap1 [4] = biological target: T2, Keap1 (Mus musculus, UniProt Q9Z2X8); test: as above; conditions: COS7 cells, HA-WT Keap1, 10 μM CAB
T2 construct: expressed in transfected cells; host or cells: COS7 cells
T2 sequence (Q9Z2X8 whole entry): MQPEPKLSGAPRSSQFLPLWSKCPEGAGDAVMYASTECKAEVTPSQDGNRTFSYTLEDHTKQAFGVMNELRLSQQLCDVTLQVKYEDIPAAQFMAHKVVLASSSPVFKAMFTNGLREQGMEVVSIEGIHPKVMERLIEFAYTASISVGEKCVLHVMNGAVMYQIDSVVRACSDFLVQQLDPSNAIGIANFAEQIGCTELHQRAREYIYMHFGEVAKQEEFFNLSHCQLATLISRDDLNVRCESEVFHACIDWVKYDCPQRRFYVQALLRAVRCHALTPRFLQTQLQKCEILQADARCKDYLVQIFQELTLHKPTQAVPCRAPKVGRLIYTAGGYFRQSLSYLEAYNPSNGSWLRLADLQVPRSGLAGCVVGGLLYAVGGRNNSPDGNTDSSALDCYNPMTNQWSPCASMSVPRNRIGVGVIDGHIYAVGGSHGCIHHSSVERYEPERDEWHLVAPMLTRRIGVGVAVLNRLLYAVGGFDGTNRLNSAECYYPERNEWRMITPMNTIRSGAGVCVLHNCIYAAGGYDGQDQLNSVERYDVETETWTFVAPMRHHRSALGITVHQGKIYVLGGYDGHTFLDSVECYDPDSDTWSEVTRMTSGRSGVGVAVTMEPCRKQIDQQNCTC
Experimental: as §1, §2, §3, §4

SMILES: C[S+]([O-])CCCCN=C=S (stereo not shown) [sulforaphane, reference compound]
- protection of PC12h cells against oxidative glutamate toxicity (PC12h cells): did not protect

SMILES: CCN1C(=O)C=CC1=O [NEM, N-ethylmaleimide, reference compound]
- outcome for neurons in cortical cultures (GSH): neuronal death after 24 h

SMILES: C=CC1=C(C)c2cc3[n-]c(cc4nc(cc5[n-]c(cc1n2)c(C)c5C=C)C(C)=C4CCC(=O)O)c(CCC(=O)O)c3C.[Zn+2] [ZnPP, zinc protoporphyrin, reference compound]
- effect of HO-1 antagonist on neuroprotection by NEPP11 (cerebrocortical neurons): abrogated the neuroprotective effect of NEPP11

SMILES: CC(C)c1cc2c(c(O)c1O)C1(C(=O)NCCCCCNC(=O)CCCCC3SCC4NC(=O)NC43)CCCC(C)(C)C1CC2 (stereo not shown) [CAB]
- level required to protect PC12h cells, relative to CA (PC12h cells): a greater level of CAB than CA was required
- adduct formation with BSA [1]: a single band (68 kDa) corresponding to the complex of BSA and CAB was detected
- site of accumulation at low concentration ([2]; CAB 3 μM): non-neuronal cells were strongly positive
- site of accumulation at higher concentration ([2]; CAB 10 μM): neurons were also labeled
- ARE activation relative to CA (ARE; 20 μM CAB versus 10 μM CA): to a much lesser extent
- activation of the ARE (ARE; PC12h cells, CAB): significantly activated the ARE
- binding to IVR Keap1 (Keap1 [3]): very little binding
- binding to ΔBTB Keap1 (Keap1 [3]): no binding at all
- binding to ΔDGR Keap1 (Keap1 [3]): strong binding
- binding to Keap1-WT (73-kDa protein) (Keap1 [4]): observed in cells treated with CAB
